“And” between values parts separate entries of the source, which are not always exact repeats. Equal values may be shown once.
Assays:
hCB1 [1] = target: T1, hCB1 (Homo sapiens, UniProt P21554); test: bioSensAll ebBRET signaling profiling, hCB1; assay type: cell-based; parameters: host or cells: HEK293SL cells, transient PEI transfection; settings: for Gi1 hCB1 / GoB hCB1: single replicate values, FigS6a; for Emax [95% CI]: normalized to CP-55,940; for EC50: read-out: EC50 [95% CI]
CB1 (rCB1) = CB1 (rCB1) (Rattus norvegicus, UniProt P20272); test: Radioligand competition binding, [3H]-CP-55,940, rat brain membranes
hCB1 [2] = target: T1, hCB1; test: Tango β-arrestin-2 recruitment, HTLA cells, CB1R; assay type: cell-based; parameters: expressed in transfected cells; host or cells: HTLA cells (gift of R. Axel), transient transfection
hCB2 = hCB2 (Homo sapiens, UniProt P34972); test: TRUPATH BRET2 GoA dissociation, HEK293T; assay type: cell-based; parameters: expressed in transfected cells; host or cells: HEK293T cells (ATCC: CRL-3216), transient co-transfection; settings: for functional response, concentration-response point (FigS7e, normalized): Log[drug], replicate columns
Chain of hCB2 (P34972 whole entry): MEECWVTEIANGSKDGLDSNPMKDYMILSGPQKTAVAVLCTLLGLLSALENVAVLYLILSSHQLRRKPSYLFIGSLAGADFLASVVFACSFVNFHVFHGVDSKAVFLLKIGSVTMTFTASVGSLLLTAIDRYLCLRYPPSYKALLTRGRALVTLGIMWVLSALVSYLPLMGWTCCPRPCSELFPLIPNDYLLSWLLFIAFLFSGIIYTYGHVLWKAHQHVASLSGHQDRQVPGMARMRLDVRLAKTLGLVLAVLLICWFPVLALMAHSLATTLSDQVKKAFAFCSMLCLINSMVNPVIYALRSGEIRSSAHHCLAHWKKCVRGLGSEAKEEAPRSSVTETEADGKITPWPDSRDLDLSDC

T1 sequence (P21554 whole entry): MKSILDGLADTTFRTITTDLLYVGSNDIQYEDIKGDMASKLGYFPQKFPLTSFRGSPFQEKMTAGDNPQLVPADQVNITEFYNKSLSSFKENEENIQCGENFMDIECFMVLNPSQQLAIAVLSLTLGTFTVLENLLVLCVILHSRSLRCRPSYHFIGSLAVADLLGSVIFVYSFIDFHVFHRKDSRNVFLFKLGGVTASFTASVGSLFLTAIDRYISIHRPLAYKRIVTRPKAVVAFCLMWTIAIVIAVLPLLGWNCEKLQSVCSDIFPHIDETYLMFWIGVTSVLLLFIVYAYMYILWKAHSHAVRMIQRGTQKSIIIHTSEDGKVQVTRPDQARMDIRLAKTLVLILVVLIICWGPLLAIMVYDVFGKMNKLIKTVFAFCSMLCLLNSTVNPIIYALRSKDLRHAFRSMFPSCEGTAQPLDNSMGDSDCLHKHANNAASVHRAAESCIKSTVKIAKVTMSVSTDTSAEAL
Chain of CB1 (rCB1) (P20272 whole entry): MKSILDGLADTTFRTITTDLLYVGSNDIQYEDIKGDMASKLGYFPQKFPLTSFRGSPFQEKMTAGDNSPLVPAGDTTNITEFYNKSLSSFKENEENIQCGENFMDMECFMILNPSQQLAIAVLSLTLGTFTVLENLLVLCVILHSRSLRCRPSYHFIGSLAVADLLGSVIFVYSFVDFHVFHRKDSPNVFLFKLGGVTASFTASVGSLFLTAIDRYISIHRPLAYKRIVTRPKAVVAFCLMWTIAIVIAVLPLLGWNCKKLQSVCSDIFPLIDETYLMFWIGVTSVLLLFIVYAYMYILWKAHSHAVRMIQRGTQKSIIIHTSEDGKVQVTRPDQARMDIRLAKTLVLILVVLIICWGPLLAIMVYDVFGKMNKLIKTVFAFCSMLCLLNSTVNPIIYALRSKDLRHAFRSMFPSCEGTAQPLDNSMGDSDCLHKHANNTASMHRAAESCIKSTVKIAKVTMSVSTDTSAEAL

COC(=O)[C@@H]1[C@@H]2CCC[C@@H]2CN1C(=O)c1cc(C)n(-c2cccc(C(F)(F)F)c2)n1 [‘6439]
Gi1 hCB1 (hCB1 [1]; Log [Compound] (M) -11.0177): -0.651 | GoB hCB1 (hCB1 [1]; Log [Compound] (M) -11.0177): -1.557 | Gi1 hCB1 (hCB1 [1]; Log [Compound] (M) -11.4949): -0.6201 | GoB hCB1 (hCB1 [1]; Log [Compound] (M) -11.4949): 1.626 | Gi1 hCB1 (hCB1 [1]; Log [Compound] (M) -11.9208): -0.3581 | GoB hCB1 (hCB1 [1]; Log [Compound] (M) -11.9208): -0.04642 | Gi1 hCB1 (hCB1 [1]; Log [Compound] (M) -12.3979): 0.9369 | GoB hCB1 (hCB1 [1]; Log [Compound] (M) -12.3979): 0.02551 | Gi1 hCB1 (hCB1 [1]; Log [Compound] (M) -12.8861): 1.631 | GoB hCB1 (hCB1 [1]; Log [Compound] (M) -12.8861): 1.572 | Gi1 hCB1 (hCB1 [1]; Log [Compound] (M) -13): -0.9439 and 1.0911 | GoB hCB1 (hCB1 [1]; Log [Compound] (M) -13): -0.55 and -0.478 | pEC50 [95% CI] (hCB1 [1]; hCB1 Gi1): 7.2 [7.1 – 7.2] | Emax [95% CI] (hCB1 [1]; hCB1 Gi1): 95 [93 – 96] | pEC50 [95% CI] (hCB1 [1]; hCB1 GoB): 7.2 [7.2 – 7.3] | Emax [95% CI] (hCB1 [1]; hCB1 GoB): 100 [99 – 101] | pEC50 [95% CI] (hCB1 [1]; hCB1 Gz): 6.5 [5.9 – 7.0] | Emax [95% CI] (hCB1 [1]; hCB1 Gz): 162 [125 –199] | EC50 (hCB1 [1]; hCB1 Gi1): 65.5 nM | EC50 (hCB1 [1]; hCB1 GoB): 60.9 nM | EC50 (hCB1 [1]; hCB1 Gz): 339 nM | pKi [95% CI] (CB1 (rCB1); rCB1): 6.6 [6.4 – 6.8] | Ki (CB1 (rCB1); read-out: Ki [95% CI], rCB1, [3H]-CP-55,940): 251 nM | response, replicate values of concentration-response curve (FigS7f) (hCB1 [2]; Log[drug], M = -4.52): -10.8475 and 13.7559 and -1.3408 and 30.128 and 34.5335 and 23.984 and 49.6721 and 28.9692 and 37.5272 | response, replicate values of concentration-response curve (FigS7f) (hCB1 [2]; Log[drug], M = -5): 12.97 and -6.259 and -29.1004 and -18.7713 and 7.052 and 41.6727 and 31.5861 and -0.2412 and 17.8549 and 115.231 and 93.3593 and 69.1731 | response, replicate values of concentration-response curve (FigS7f) (hCB1 [2]; Log[drug], M = -5.52): -14.7516 and -1.011 and 3.958 and 21.4628 and 26.9697 and -2.702 and -24.3795 and -8.092 and 23.1695 and 55.5034 and 99.9754 and 83.8088 | response at Log[drug], M -5.52 (FigS4e) (hCB1 [2]; Log[drug], M = -5.52, individual replicates): 41.0598 and 42.1112 and 37.5809 and 36.0059 and 27.2068 and 23.0093 and 28.7041 and 23.0465 and 29.4359 and 31.2692 and 37.5598 and 31.3786 | response, replicate values of concentration-response curve (FigS7f) (hCB1 [2]; Log[drug], M = -6): -7.78 and 1.232 and -8.579 and 16.9776 and 8.83 and 54.3719 and -17.0743 and 6.68 and 7.903 and 46.3174 and 81.0931 and 82.3871 | response at Log[drug], M -6 (FigS4e) (hCB1 [2]; Log[drug], M = -6, individual replicates): 26.6779 and 28.882 and 31.009 and 30.2093 and 13.1731 and 19.3667 and 17.0092 and 18.0259 and 28.822 and 23.6752 and 23.7677 and 25.0376 | response, replicate values of concentration-response curve (FigS7f) (hCB1 [2]; Log[drug], M = -6.52): 6.949 and 23.0344 and 26.685 and -30.9662 and -12.5345 and 9.44 and -7.445 and 20.4415 and 28.8782 and 41.1229 and 58.9482 and 96.877 | response at Log[drug], M -6.52 (FigS4e) (hCB1 [2]; Log[drug], M = -6.52, individual replicates): 20.6989 and 18.775 and 18.227 and 14.6552 and 8.92 and 7.4713 and 4.648 and 5.829 and 9.707 and 10.7245 (2×) and 6.125 | response, replicate values of concentration-response curve (FigS7f) (hCB1 [2]; Log[drug], M = -7): 31.5144 and 45.4069 and -35.2101 and -37.1897 and 1.93 and 0.2842 and 7.478 and -20.5097 and -17.3775 and 49.0331 and 80.6374 and 65.8924 | response at Log[drug], M -7 (FigS4e) (hCB1 [2]; Log[drug], M = -7, individual replicates): 6.9232 and 8.043 and 10.8845 and 9.988 and 0.5556 and -1.865 and 0.4774 and 0.6189 and 2.467 and 3.148 and 2.635 and 4.207 | response, replicate values of concentration-response curve (FigS7f) (hCB1 [2]; Log[drug], M = -7.52): -4.763 and -11.0123 and 28.1301 and -8.049 and -20.0319 and -11.1013 and -22.9649 and -19.4286 and 2.9819 and 44.3307 and 18.8869 and 45.9893 | response at Log[drug], M -7.52 (FigS4e) (hCB1 [2]; Log[drug], M = -7.52, individual replicates): 6.822 and 6.684 and 9.44 and 7.52 and -3.124 and -0.9675 and -2.021 and -2.681 and -0.3421 and -0.05622 and 2.349 and 1.533 | response at Log[drug], M -8 (FigS4e) (hCB1 [2]; Log[drug], M = -8, individual replicates): 5.884 and 9.216 and 9.707 and 9.61 and -1.035 and -0.111 and -1.31 and -2.509 and 0.4231 and 1.197 and 7.663 and 1.289 | response at Log[drug], M -8.52 (FigS4e) (hCB1 [2]; Log[drug], M = -8.52, individual replicates): 12.6416 and 8.6666 and 7.701 and 11.5559 and 0.09453 and -1.259 and 2.111 and -1.3123 and 0.08722 and 0.8217 and 1.887 and 4.054 | response at Log[drug], M -9 (FigS4e) (hCB1 [2]; Log[drug], M = -9, individual replicates): 6.15 and 10.745 and 10.5633 and 11.2546 and -2.544 and -0.8488 and 0.7085 and -0.4422 and 2.383 and 3.898 and 2.695 and 3.787 | response, replicate values of concentration-response curve (FigS7f) (hCB1 [2]; Log[drug], M = -9.52): -11.8869 and 10.4349 and -26.9456 and -12.2027 and 18.9813 and -12.6008 and 11.5803 | response at Log[drug], M -9.52 (FigS4e) (hCB1 [2]; Log[drug], M = -9.52, individual replicates): 7.12 and 7.04 and 8.157 and 9.473 and -0.8081 and -1.207 and -0.4666 and -1.821 and 4.375 and 2.502 and 0.01377 and 0.5555 | response, replicate values of concentration-response curve (FigS7f) (hCB1 [2]; Log[drug], M = -10): 17.8121 and -5.27 and 8.977 and 22.6969 and 39.8414 and 41.3409 and 56.1992 and 5.841 and 17.8346 and -4.352 and 10.4482 and -28.6471 | response at Log[drug], M -10 (FigS4e) (hCB1 [2]; Log[drug], M = -10, individual replicates): 8.321 and 7.43 and 8.2855 and 10.5544 and 1.814 and -2.821 and -0.4869 and -0.1291 and 2.41 and 4.577 and 0.8034 and 1.18 | response at Log[drug], M -10.52 (FigS4e) (hCB1 [2]; Log[drug], M = -10.52, individual replicates): 8.25 and 8.706 and 9.026 and 10.1955 and -1.024 and 0.4442 and -0.6414 and 0.7573 and 1.648 and 0.8217 and 2.116 and 5.22 | response at Log[drug], M -11 (FigS4e) (hCB1 [2]; Log[drug], M = -11, individual replicates): 3.256 and 4.195 and 6.189 and 8.184 and 0.0864 and 0.615 and -0.08844 and -0.05998 and 3.273 and 3.861 and 4.338 and 1.74 | response at Log[drug], M -11.52 (FigS4e) (hCB1 [2]; Log[drug], M = -11.52, individual replicates): 5.192 and 4.514 and 4.754 and 3.593 and 1.237 and 0.5215 and -0.05998 and -1.081 and -0.5647 and 0.7391 and 0.6014 and 3.236 | response at Log[drug], M -12 (FigS4e) (hCB1 [2]; Log[drug], M = -12, individual replicates): 0.3534 and 0.1806 and 0.07866 and -0.6126 and -2.04 and 1.058 and -0.6333 and 1.615 and -1.51 and 0.6106 and 0.6473 and 0.2525 | EC50 (hCB1 [2]; hCB1, read-out: Tango ß-arrestin recruitment EC50): > 10000 nM | EC50 (hCB2): 97.1 nM | BRET2 + GoA Emax (hCB2; % of CP-55,940): 81% [34 – 128] | functional response, concentration-response point (FigS7e, normalized) (hCB2; M = -5): 12.9272 and 15.9912 and 13.3933 and 14.1917 and 9.02 and 8.9115 and 9.964 and 9.677 and 16.1327 and 18.1614 and 17.7797 and 17.4918 | functional response, concentration-response point (FigS7e, normalized) (hCB2; M = -5.52): 13.7946 and 14.1528 and 14.7009 and 15.5942 and 7.819 and 9.861 and 11.3112 and 10.248 and 13.5348 (2×) and 16.0255 and 15.2556 | functional response, concentration-response point (FigS7e, normalized) (hCB2; M = -6): 13.5098 and 11.3391 and 11.5247 and 10.1826 and 7.139 and 7.697 and 10.1371 and 9.4066 and 13.2838 and 11.7338 and 12.1556 and 10.2207 | functional response, concentration-response point (FigS7e, normalized) (hCB2; M = -6.52): 8.245 and 8.18 and 7.1316 and 8.582 and 5.652 and 4.45 and 4.542 and 4.824 and 8.731 and 6.786 and 7 and 7.151 | functional response, concentration-response point (FigS7e, normalized) (hCB2; M = -7): 3.477 and 2.251 and 1.336 and 1.824 and 2.04 and 2.129 and 1.242 and 0.8388 and 2.913 and 2.96 and 2.756 and 1.624 | functional response, concentration-response point (FigS7e, normalized) (hCB2; M = -7.52): 0.5378 and 0.2401 and 2.191 and 0.8701 and 1.326 and 0.4303 and 0.552 and 0.1165 and 1.032 and 0.8075 and 1.393 and 1.507 | functional response, concentration-response point (FigS7e, normalized) (hCB2; M = -8): 0.2919 and 0.01139 and 0.3868 and 0.4645 and -0.1973 and 0.3762 and 0.9064 and 1.539 and 0.3891 and 0.4427 and 0.6703 and 0.6301 | functional response, concentration-response point (FigS7e, normalized) (hCB2; M = -8.52): -0.3369 and -0.3039 and -0.3274 and -0.06361 and -0.07458 and 0.1558 and -0.006646 and 0.09378 and 0.05117 and 0.1425 and 0.3472 and 0.4422 | functional response, concentration-response point (FigS7e, normalized) (hCB2; M = -12): 0.6997 and -0.1013 and -0.3699 and -0.2285
